In article PMC10691210 (Proceedings of the National Academy of Sciences of the …, 2023) one finds herbicidal effectiveness data, which are given here for one molecule.

For this experiment, the system named is whole plants. Briefly: Herbicidal activity on whole plants. The class given is in vivo.

Take `Cc1nc2c(F)c(F)ccc2cc1Oc1cccc(F)c1C(C)(C)O` [ipflufenoquin]: the herbicidal effectiveness result is listed as “ineffective”.
